In US4057530A, “2-Phenyl-indole derivatives and process for preparing the same” (priority 1974, dated 1977):

How the values were obtained:
[1] = Acute toxicity by oral route in mice (LD50); assay type: in vivo; details: mouse, in vivo, gummy suspension
Description: (§1) The study of the acute toxicity of the stabilizers listed below was carried out by determining the dose of substance which provoked the death of 50% of the treated animals (LD50). A gummy suspension of the substance under study was administered by oral route to groups of at least ten mice and the following results were observed: […]

[2] = test system: mice; experiment: Acute toxicity by oral route in mice (LD50); assay type: in vivo; details: LD50 study
Description: as §1

[3] = Static thermostability of stabilized resin, simplified method (GARDNER sub-scale), Compound A; details: 210° C; for Colouration given to the polymer: 0 and 3 min
Description: (§2) The stabilizing power of the substances of the invention was studied from two points of view:
(§3) These studies were performed with six different formulae of vinyl resins (hereinafter referred to as Compounds).
(§4) The different compounds were mixed and calendered in a mixer of which the cylinders were heated to 160° C. The rigid sheets so obtained were then heated in an oven to a temperature between 180° C and 215° C, until incipient carbonization.
(§5) A stove with rotating drums, ventilated and equipped with a thermostat was used for this operation. In the trials described hereunder, the behaviour of a sheet containing the stabilizer to be tested was compared to that of a sheet of the same formula but containing 2-phenyl-indole as stabilizer.
2. It is also possible to use a simplified method which is more rapid and with which valid results are also obtained: a reference scale is drawn up with sheets of thermally treated polyvinyl chloride, of which the colourations have been definitely determined in GARDNER degrees as above. A GARDNER sub-scale is thus obtained in polyvinyl chloride sheets which can be directly compared to the sheets to be tested without using the comparator.
Finally, trials were carried out with Stabilizers 15, 16 and 17 and with 2-phenyl-indole. Compound A was used and the temperature was 210° C.

[4] = Static thermostability of stabilized resin, GARDNER Scale Comparator, Compound A; details: 185° C
Description: as §2, §3, §4, §5
1. The colouration of the sheets, of which samples were removed from the stove at fixed intervals was compared to a standard scale of colouration, known as the GARDNER Scale, and expressed in terms of the reference figures of the GARDNER Scale.
Comparisons were made with a GARDNER Scale Comparator which contains 18 filters of coloured glass and which offers the possibility of observing by transparency and in a limited field of view both the sheet and the reference filters.

Row | Structure (SMILES) | LD50 [1] [mg/kg] | Toxic symptoms [2] | Static thermostability compared with 2-phenyl-indole [3] | Colouration of sheet (GARDNER sub-scale) ([3]; 0 min) | Colouration of sheet (GARDNER sub-scale) ([3]; 3 min) | Colouration of sheet (GARDNER sub-scale) ([3]; 6 min) | Colouration of sheet (GARDNER sub-scale) ([3]; 9 min) [GARDNER degrees] | Colouration of sheet (GARDNER sub-scale) ([3]; 12 min) [GARDNER degrees] | Colouration of sheet (GARDNER sub-scale) ([3]; 15 min) | Colouration of sheet (GARDNER sub-scale) ([3]; 18 min) | other results
1 | Sc1ccc(-c2cc3ccccc3[nH]2)cc1 [Stabilizer 1, 2-(4'-mercapto-phenyl)-indole] | > 2000 | none | superiority of Stabilizer 1 over 2-phenyl-indole | 1 GARDNER degrees | 2 GARDNER degrees | 2.5 GARDNER degrees | 7 | 11 | 12 GARDNER degrees | – | –
2 | CSc1ccc(-c2cc3ccccc3[nH]2)cc1 [Stabilizer 3, 2-(4'-methylthio-phenyl)-indole] | > 3000 | none | markedly superior to 2-phenyl-indole | 1 GARDNER degrees | 1 GARDNER degrees | 2 GARDNER degrees | 3 | 8 | 10 GARDNER degrees | – | –
3 | CC(=O)Oc1ccc(-c2cc3ccccc3[nH]2)cc1 [Stabilizer 4, 2-(4'-acetoxy-phenyl)-indole] | > 3000 | none | – | – | – | – | – | – | – | – | –
4 | CCOC(=O)C(C)(C)Oc1ccc(-c2cc3ccccc3[nH]2)cc1 [Stabilizer 5, 2-(4'-carbethoxyisopropyloxy-phenyl)-indole] | > 3000 | none | markedly superior to 2-phenyl-indole | – | – | – | – | – | – | – | –
5 | O=C(Oc1ccc(-c2cc3ccccc3[nH]2)cc1)c1ccccc1 [Stabilizer 6, 2-(4'-benzoyloxy-phenyl)-indole] | > 4000 | none | – | – | – | – | – | – | – | – | –
6 | Nc1cccc(-c2cc3ccccc3[nH]2)c1 [Stabilizer 11, 2-(3'-amino-phenyl)-indole] | – | – | developed less rapidly than that due to 2-phenyl-indole | 3 GARDNER degrees | 3 GARDNER degrees | 4 GARDNER degrees | 5 | 10 | 12 GARDNER degrees | burnt | Colouration given to the polymer [3]: relatively intense yellow colouration
7 | O=C(O)COc1ccc(-c2cc3ccccc3[nH]2)cc1 [Stabilizer 12, 2-(4'-carboxymethoxy-phenyl)-indole] | – | – | developed less rapidly than those due to 2-phenyl-indole | 2 GARDNER degrees | 2 GARDNER degrees | 3 GARDNER degrees | – | – | brown | burnt | –
8 | CCOC(=O)COc1ccc(-c2cc3ccccc3[nH]2)cc1 [Stabilizer 13, 2-(4'-carbethoxymethoxy-phenyl)-indole] | – | – | markedly superior to 2-phenyl-indole | 2 GARDNER degrees | 2 GARDNER degrees | 3 GARDNER degrees | 3 | 9 | 11 GARDNER degrees | burnt | –
9 | CC(=O)Nc1ccc(-c2cc3ccccc3[nH]2)cc1 [Stabilizer 14, 2-(4'-N-acetylamino-phenyl)-indole] | – | – | slightly superior to 2-phenyl-indole | 2 GARDNER degrees | 2 GARDNER degrees | 3 GARDNER degrees | 4 | 8 | 12 GARDNER degrees | burnt | –
10 | CC(C)Sc1ccc(-c2cc3ccccc3[nH]2)cc1 [Stabilizer 17, 2-(4'-isopropylthio-phenyl)-indole] | – | – | very rapidly found to be superior to 2-phenyl-indole | 1 GARDNER degrees | 1 GARDNER degrees | 2 GARDNER degrees | 4 | 10 | 13 GARDNER degrees | burnt | Colouration of sheet (GARDNER Scale) ([4]; 0 min): 1 GARDNER degrees; Colouration of sheet (GARDNER Scale) ([4]; 6 min): 1 GARDNER degrees; Colouration of sheet (GARDNER Scale) ([4]; 12 min): 2 GARDNER degrees; Colouration of sheet (GARDNER Scale) ([4]; 18 min): 4 GARDNER degrees; Colouration of sheet (GARDNER Scale) ([4]; 24 min): 9 GARDNER degrees; Colouration of sheet (GARDNER Scale) ([4]; 30 min): 11 GARDNER degrees; Colouration of sheet (GARDNER Scale) ([4]; 36 min): 12 GARDNER degrees; Colouration of sheet (GARDNER Scale) ([4]; 42 min): 13 GARDNER degrees; Colouration of sheet (GARDNER Scale) ([4]; 48 min): 14 GARDNER degrees; Colouration of sheet (GARDNER Scale) ([4]; 54 min): burnt
11 | Oc1ccc(-c2cc3ccccc3[nH]2)cc1 [Stabilizer 20, 2-(4'-hydroxy-phenyl)-indole] | > 3000 | none | markedly superior to 2-phenyl-indole | 1 GARDNER degrees | 1 GARDNER degrees | 2 GARDNER degrees | 4 | 9 | 11 GARDNER degrees | – | –
12 | Nc1ccc(-c2cc3ccccc3[nH]2)cc1 [Stabilizer 22, 2-(4'-amino-phenyl)-indole] | – | – | developed less rapidly than that due to 2-phenyl-indole | 2 GARDNER degrees | 3 GARDNER degrees | 3 GARDNER degrees | 4 | 6 | 12 GARDNER degrees | burnt | Colouration given to the polymer [3]: relatively strong yellow colouration
13 | Nc1ccccc1-c1cc2ccccc2[nH]1 [Stabilizer 23, 2-(2'-amino-phenyl)-indole] | > 2000 | none | superior to 2-phenyl-indole | pink | pink | pink | 4 | 6 | 12 GARDNER degrees | – | –
14 | O=C(Nc1ccccc1-c1cc2ccccc2[nH]1)c1ccccc1 [Stabilizer 25, 2-(2'-N-benzoylamino-phenyl)-indole] | – | – | slightly superior to 2-phenyl-indole | 2 GARDNER degrees | 2 GARDNER degrees | 4 GARDNER degrees | 6 | 9 | 12 GARDNER degrees | burnt | –
15 | c1ccc(-c2ccc(-c3cc4ccccc4[nH]3)cc2)cc1 [Stabilizer 26, 2(4'-phenyl-phenyl)-indole] | – | – | markedly superior to 2-phenyl-indole | 2 GARDNER degrees | 2 GARDNER degrees | 3 GARDNER degrees | 4 | 5 | 12 GARDNER degrees | 14 GARDNER degrees | –
